How the values were obtained:
[1] = test system: C57BL/6 mice; assay: Rodent model of acute liver failure: CCl4 dose finding (survival, serum transaminases); type: in vivo
Procedure: FIG. 1A-1C describes mortality and hepatic injury after injection of carbon tetrachloride (CCl4). FIG. 1A is a graph showing percent survival over four days among groups (n=10) of mice administered intraperitoneal injections of CCL4 at doses of 2 ml/kg (solid line), 3 ml/kg (dashed line), 4 ml/kg (diamond markers), or 4.5 ml/kg (circle markers). FIG. 1B is a graph displaying peak liver function test (LF) results, specifically, serum aspartate transaminase (AST) (dark bars) and alanine transaminase (ALT) (light bars) levels in mice (n=2) 24 hrs and 96 hrs after intraperitoneal injection of CCL4 at 4 ml/kg compared to baseline levels in uninjected animals (0 hrs).
Rodent models of Acute Liver Failure.
The large majority of animals in this group were transiently ill but rapidly regained vigor. […] A dose of 4 ml/kg would result in about 60% to 100% mortality among the animals over the course of three to seven days. Slight adjustments in the dose (i.e., 4.5 ml/kg) at this level would have obvious effects on mortality with all animals succumbing within 24-48 hours.
A dose of 4 ml/kg was eventually selected for the final model. Mortality with this dose was typically about 80% around five days and was preceded by a significant elevation in serum transaminases. AST and ALT levels peaked at approximately 5,000 on day one to two after injury (FIG. 1B).

[2] = test system: CD34+ stem cells in peripheral blood; details: pigs
Procedure: The dosage of plerixafor used in swine transplants was based on the experiments in rats. It is possible that the effective dosage of plerixafor will differ among species. The efficacy of plerixafor was tested in non-transplanted pigs and blood cell count and flow cytometric analysis were used to measure CD34^+ stem cells in peripheral blood.

[3] = test system: human immunodeficiency virus (HIV); details: cited from earlier work
[4] = test system: CD34+ cells / HSCs; details: healthy volunteers; cited from earlier work
[5] = test system: CXCR4 receptor; details: mutated receptor (not named); cited from earlier work
[6] = test system: CD34+ HSCs / peripheral white blood cells; assay: HSC mobilization in rats, flow cytometric analysis of peripheral blood; type: in vivo; details: for peripheral CD34+ absolute count / total lymphocyte count: single dose; for average total WBC: single sc dose (plerixafor 2 mg/kg, G-CSF 300 μg/kg), n=3
Procedure: Rats (n=3 per treatment group) were administered a single dose of plerixafor (2 mg/kg), G-CSF (300 μg/kg) or both. In FIG. 2A, peripheral total white blood cell (WBC) count, total lymphocytes, and CD34^+ cells were measured in […] by FACS analysis at 1 hr and 6 hrs after injection. […] See Mozobil (plerixafor injection) Product Monograph 2009 (Genzyme Corporation, Cambridge, Mass.).
Mobilization of HSCs. For HSC mobilization, plerixafor and G-CSF were administered by subcutaneous injection at weight-based doses consistent with those that have proven effective in human clinical trials or as has been used previously by the present inventors (plerixafor, 2 mg/kg/dose; G-CSF 300 μg/kg/dose). Plerixafor and G-CSF were administered 12-hours following CCl4 injection, in treatment groups comprised of eight to ten animals. Control treatment groups were administered an injection with an equivalent volume of saline.
Flow Cytometric Analysis of Peripheral Blood. Following HSC mobilization, animals were sacrificed at either one or six hours post treatment and blood was collected. Leukocyte suspensions (1×10^6) of peripheral blood were analyzed for CD34, Thy-1 and c-Kit expression. Nonspecific antibody binding was blocked with mouse and donkey serum (Sigma) for 30 minutes. The cells were incubated with Alexa Fluor 647 conjugated mouse anti-rat CD34 (1:10) (Santa Cruz Biotechnology), fluorescein isothiocyanate (FITC)-conjugated mouse anti-rat CD90 (Thy-1, 1:100) (BD Pharmingen), and rabbit anti-rat c-Kit (1:100) (Santa Cruz Biotechnology) for 45 minutes at 4° C., followed by phycoerythrin (PE)-conjugated donkey anti-rabbit IgG (1:200) (eBioscience) for 30 minutes at 4° C. The CD34, Thy-1 and c-Kit positive cells were counted by flow cytometry using CELLQuest software (Becton-Dickinson).

[7] = CCl4 4 ml/kg, day one to two after injury

Row | Molecule | mortalities per ten animals ([1]; CCl4 2 ml/kg intraperitoneal, within first one to two days) | mortality ([1]; CCl4 4 ml/kg, around five days) | peak serum ALT level [1, 7] | peak serum AST level [1, 7] | time within which all animals succumbed ([1]; CCl4 4.5 ml/kg) [h] | time of peak CD34+ cell levels ([2]; after subcutaneous injection) [h] | difference in number of CD34+ cells between 1 mg/kg and 2 mg/kg ([2]; at 2, 3 and 6 hours after injection) | absolute number of CD34+ cells per ml blood ([2]; subcutaneous injection, time-dependent) | anti-HIV efficacy in vivo [3] | mobilization of HSCs to the periphery [4] | affinity of mutated receptor relative to affinity in CXCR4 [5] [fold] | increase in affinity after introduction of Glu at VII:06 and removal of Lys at VII:02 [5] [fold] | peripheral CD34+ absolute count ([6]; one hour) [cells/ml] | total lymphocyte count ([6]; one hour) | peripheral CD34+ absolute count ([6]; six hours) [cells/ml] | total lymphocyte count ([6]; six hours) | average total WBC ([6]; 1 hour) | average total WBC ([6]; 6 hours)
1 | ClC(Cl)(Cl)Cl [CCL4, carbon tetrachloride] | one or two | about 80% | approximately 5,000 | approximately 5,000 | 24 to 48 | – | – | – | – | – | – | – | – | – | – | – | – | –
2 | c1cc(CN2CCCNCCNCCCNCC2)ccc1CN1CCCNCCNCCCNCC1 [plerixafor, 1,1′-[1,4-phenylenebis(methylene)]bis-1,4,8,11-tetraazacyclo-tetradecane] | – | – | – | – | – | 3 | no significant difference | significantly increased | not an effective anti-HIV agent | massive mobilization | ≤ 10 | 1000 | 333 | 4,400 | 135 | 4,800 | 6,100 | 7,300
3 | G-CSF: granulocyte colony stimulating factor, stem cell mobilizer (protein, UniProt P09919 31-207, looked up) Granulocyte …: TPLGPASSLPQSFLLKCLEQVRKIQGDGAALQEKLVSECATYKLCHPEELVLLGHSLGIPWAPLSSCPSQALQLAGCLSQLHSGLFLYQGLLQALEGISPELGPTLDTLQLDVADFATTIWQQMEELGMAPALQPTQGAMPAFASAFQRRAGGVLVASHLQSFLEVSYRVLRHLAQP | – | – | – | – | – | – | – | – | – | – | – | – | 216 | 2,000 | 238 | 4,100 | 3,300 | 7,800
